Source: ChEMBL document CHEMBL1201862, “PubChem BioAssay data set” (2004)
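1) Cells in 96-well plates. 2) Compound, 48 h, 5 concentrations. 3) Linear interpolation between surrounding doses. 4) Unreached endpoint = highest concentration. Here, GI50 denotes the concentration required for 50% inhibition of growth.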 Activity calls are given as the source filed them. Rule as the data show it: active = GI50 up to about 1.1 µM and inactive = higher.

Legend:
Experiment in all cases: inhibition of tumour cell growth, NCI panel, 48 h
[1] = tested on: BT-549
[2] = tested on: T47D
[3] = tested on: LOX IMVI
[4] = tested on: SK-MEL-5
[5] = tested on: SF-539
[6] = tested on: MDA-MB-231
[7] = tested on: HCC 2998
[8] = tested on: SR
[9] = tested on: NCI-H522
[10] = tested on: M14
[11] = tested on: DU-145
[12] = tested on: MCF7
[13] = tested on: TK-10
[14] = tested on: 786-0
[15] = tested on: HCT-15
[16] = tested on: OVCAR-3
[17] = tested on: IGROV-1
[18] = tested on: NCI/ADR-RES
[19] = tested on: RXF 393
[20] = tested on: HOP-62
[21] = tested on: SF-268
[22] = tested on: COLO 205
[23] = tested on: EKVX
[24] = tested on: Malme-3M
[25] = tested on: KM12
[26] = tested on: A498
[27] = tested on: SK-OV-3
[28] = tested on: K562
[29] = tested on: UO-31
[30] = tested on: HL-60
[31] = tested on: ACHN
[32] = tested on: OVCAR-4
[33] = tested on: OVCAR-5
[34] = tested on: RPMI-8226
[35] = tested on: UACC-257
[36] = tested on: HOP-92
[37] = tested on: HT-29
[38] = tested on: UACC-62
[39] = tested on: CAKI-1
[40] = tested on: SN12C
[41] = tested on: MDA-N
[42] = tested on: NCI-H23
[43] = tested on: SNB-75
[44] = tested on: PC-3
[45] = tested on: NCI-H460
[46] = tested on: SW-620
[47] = tested on: Hs-578T
[48] = tested on: MOLT-4
[49] = tested on: SF-295
[50] = tested on: U-251
[51] = tested on: OVCAR-8
[52] = tested on: CCRF-CEM
[53] = tested on: NCI-H226
[54] = tested on: SK-MEL-2
[55] = tested on: SK-MEL-28
[56] = tested on: HCT-116
[57] = tested on: MDA-MB-435
[58] = tested on: A549
[59] = tested on: SNB-19

SMILES: Cc1coc2c1C(OC(=O)C(C)C)C1(C)C(C)CCC(O)C1C2=O (configuration not stated)
- GI50 [1]: > 50.8 µM (inactive)
- GI50 [2]: > 100 µM (inactive)
- GI50 [3]: > 100 µM (inactive)
- GI50 [4]: > 100 µM (inactive)
- GI50 [5]: > 100 µM (inactive)
- GI50 [6]: > 100 µM (inactive)
- GI50 [7]: > 91.4 µM (inactive)
- GI50 [8]: 51.2 µM (inactive)
- GI50 [9]: 67.1 µM (inactive)
- GI50 [10]: > 100 µM (inactive)
- GI50 [11]: > 100 µM (inactive)
- GI50 [12]: 98.2 µM (inactive)
- GI50 [13]: > 100 µM (inactive)
- GI50 [14]: > 100 µM (inactive)
- GI50 [15]: > 100 µM
- GI50 [16]: > 100 µM (inactive)
- GI50 [17]: > 100 µM (inactive)
- GI50 [18]: > 100 µM (inactive)
- GI50 [19]: > 100 µM (inactive)
- GI50 [20]: > 100 µM (inactive)
- GI50 [21]: > 100 µM (inactive)
- GI50 [22]: 97.7 µM (inactive)
- GI50 [23]: > 100 µM (inactive)
- GI50 [24]: > 100 µM (inactive)
- GI50 [25]: > 100 µM (inactive)
- GI50 [26]: > 100 µM (inactive)
- GI50 [27]: > 100 µM (inactive)
- GI50 [28]: 54 µM (inactive)
- GI50 [29]: 50.2 µM (inactive)
- GI50 [30]: 46 µM (inactive)
- GI50 [31]: > 100 µM (inactive)
- GI50 [32]: > 100 µM (inactive)
- GI50 [33]: > 100 µM (inactive)
- GI50 [34]: 89.5 µM (inactive)
- GI50 [35]: > 100 µM (inactive)
- GI50 [36]: > 100 µM (inactive)
- GI50 [37]: > 100 µM (inactive)
- GI50 [38]: > 100 µM (inactive)
- GI50 [39]: > 100 µM (inactive)
- GI50 [40]: > 100 µM (inactive)
- GI50 [41]: > 100 µM (inactive)
- GI50 [42]: > 100 µM (inactive)
- GI50 [43]: > 100 µM (inactive)
- GI50 [44]: 97.9 µM (inactive)
- GI50 [45]: > 100 µM (inactive)
- GI50 [46]: > 100 µM (inactive)
- GI50 [47]: > 100 µM (inactive)
- GI50 [48]: 93.1 µM (inactive)
- GI50 [49]: > 100 µM (inactive)
- GI50 [50]: > 100 µM (inactive)
- GI50 [51]: > 100 µM (inactive)
- GI50 [52]: 57.4 µM (inactive)
- GI50 [53]: > 100 µM (inactive)
- GI50 [54]: > 100 µM (inactive)
- GI50 [55]: > 100 µM (inactive)
- GI50 [56]: > 100 µM (inactive)
- GI50 [57]: > 100 µM (inactive)
- GI50 [58]: > 100 µM (inactive)

SMILES: C=CCc1cccc2cc(C(=O)NCc3ccccc3)c(=N)oc12
- GI50 [1]: 40.3 µM (inactive)
- GI50 [2]: 24.5 µM (inactive)
- GI50 [3]: 42.7 µM (inactive)
- GI50 [4]: 25.5 µM (inactive)
- GI50 [5]: 47.5 µM (inactive)
- GI50 [6]: 30.6 µM (inactive)
- GI50 [7]: 25.1 µM (inactive)
- GI50 [59]: 29.9 µM (inactive)
- GI50 [8]: > 100 µM (inactive)
- GI50 [9]: 18.1 µM (inactive)
- GI50 [10]: 40.6 µM (inactive)
- GI50 [11]: 37.1 µM (inactive)
- GI50 [12]: 47.8 µM (inactive)
- GI50 [14]: 29.1 µM (inactive)
- GI50 [15]: 32.2 µM
- GI50 [16]: 20.7 µM (inactive)
- GI50 [17]: 24.9 µM (inactive)
- GI50 [18]: 34.2 µM (inactive)
- GI50 [19]: 46.3 µM (inactive)
- GI50 [20]: 38.5 µM (inactive)
- GI50 [21]: 36.1 µM (inactive)
- GI50 [22]: 40.6 µM (inactive)
- GI50 [23]: 26.1 µM (inactive)
- GI50 [24]: 19.4 µM (inactive)
- GI50 [25]: 34.4 µM (inactive)
- GI50 [26]: 23.4 µM (inactive)
- GI50 [27]: 46.2 µM (inactive)
- GI50 [28]: > 100 µM (inactive)
- GI50 [30]: 25.3 µM (inactive)
- GI50 [31]: 19.9 µM (inactive)
- GI50 [32]: 41.4 µM (inactive)
- GI50 [33]: 54 µM (inactive)
- GI50 [34]: 79.8 µM (inactive)
- GI50 [35]: 89.3 µM (inactive)
- GI50 [36]: 48.5 µM (inactive)
- GI50 [37]: 34.4 µM (inactive)
- GI50 [38]: 22.8 µM (inactive)
- GI50 [39]: 37 µM (inactive)
- GI50 [40]: 27.6 µM (inactive)
- GI50 [41]: 41.4 µM (inactive)
- GI50 [42]: 31.9 µM (inactive)
- GI50 [43]: 31.3 µM (inactive)
- GI50 [44]: 18.6 µM (inactive)
- GI50 [45]: 28.5 µM (inactive)
- GI50 [46]: 49.4 µM (inactive)
- GI50 [47]: 18.8 µM (inactive)
- GI50 [48]: > 100 µM (inactive)
- GI50 [50]: 38.2 µM (inactive)
- GI50 [51]: 43.9 µM (inactive)
- GI50 [52]: 32.6 µM (inactive)
- GI50 [53]: 24.2 µM (inactive)
- GI50 [54]: 12.1 µM (inactive)
- GI50 [55]: 30.7 µM (inactive)
- GI50 [56]: 24.2 µM (inactive)
- GI50 [57]: 25.8 µM (inactive)
- GI50 [58]: 40.1 µM (inactive)

SMILES: O=C(O)c1cccc(OCCOc2cccc(C(=O)O)c2[N+](=O)[O-])c1[N+](=O)[O-]
- GI50 [1]: > 100 µM (inactive)
- GI50 [2]: > 100 µM (inactive)
- GI50 [3]: > 100 µM (inactive)
- GI50 [4]: > 100 µM (inactive)
- GI50 [5]: > 100 µM (inactive)
- GI50 [6]: > 100 µM (inactive)
- GI50 [7]: > 100 µM (inactive)
- GI50 [59]: > 100 µM (inactive)
- GI50 [8]: > 100 µM (inactive)
- GI50 [9]: > 100 µM (inactive)
- GI50 [10]: > 100 µM (inactive)
- GI50 [11]: > 100 µM (inactive)
- GI50 [12]: > 100 µM (inactive)
- GI50 [13]: > 100 µM (inactive)
- GI50 [14]: > 100 µM (inactive)
- GI50 [15]: > 100 µM
- GI50 [16]: > 100 µM (inactive)
- GI50 [17]: > 100 µM (inactive)
- GI50 [18]: > 100 µM (inactive)
- GI50 [19]: > 100 µM (inactive)
- GI50 [20]: > 100 µM (inactive)
- GI50 [21]: > 100 µM (inactive)
- GI50 [22]: > 100 µM (inactive)
- GI50 [23]: > 100 µM (inactive)
- GI50 [24]: > 100 µM (inactive)
- GI50 [25]: > 100 µM (inactive)
- GI50 [26]: > 100 µM (inactive)
- GI50 [27]: > 100 µM (inactive)
- GI50 [29]: > 100 µM (inactive)
- GI50 [30]: > 100 µM (inactive)
- GI50 [31]: > 100 µM (inactive)
- GI50 [32]: > 100 µM (inactive)
- GI50 [33]: > 100 µM (inactive)
- GI50 [34]: > 100 µM (inactive)
- GI50 [35]: > 100 µM (inactive)
- GI50 [36]: > 100 µM (inactive)
- GI50 [37]: > 100 µM (inactive)
- GI50 [38]: > 100 µM (inactive)
- GI50 [39]: > 100 µM (inactive)
- GI50 [40]: > 100 µM (inactive)
- GI50 [41]: > 100 µM (inactive)
- GI50 [42]: > 100 µM (inactive)
- GI50 [43]: > 100 µM (inactive)
- GI50 [44]: > 100 µM (inactive)
- GI50 [45]: > 100 µM (inactive)
- GI50 [46]: > 100 µM (inactive)
- GI50 [47]: > 100 µM (inactive)
- GI50 [48]: > 100 µM (inactive)
- GI50 [49]: > 100 µM (inactive)
- GI50 [50]: > 100 µM (inactive)
- GI50 [51]: > 100 µM (inactive)
- GI50 [52]: > 100 µM (inactive)
- GI50 [53]: > 100 µM (inactive)
- GI50 [54]: > 100 µM (inactive)
- GI50 [55]: > 100 µM (inactive)
- GI50 [56]: > 100 µM (inactive)
- GI50 [57]: > 100 µM (inactive)
- GI50 [58]: > 100 µM (inactive)
